Test results: ChEMBL document CHEMBL3885881, “DrugMatrix”

Species on record: Rattus norvegicus
Assay: DrugMatrix - Regimen: Daily Repeat
Assay type: toxicity, organism-based, Sprague-Dawley
Set-up: regimen Daily Repeat, gender Male, age 6-8 weeks
Details: in vivo, po, route oral GAVAGE, vehicle .5 % CMC; for ABSOLUTE BASOPHIL / ABSOLUTE EOSINOPHIL / ABSOLUTE MONOCYTE / ABSOLUTE SEGMENTED NEUTROPHIL / BASOPHIL / EOSINOPHIL / ERYTHROCYTE COUNT / HEMATOCRIT / HEMOGLOBIN / LEUKOCYTE COUNT / LYMPHOCYTE / MEAN CORPUSCULAR HEMOGLOBIN / MEAN CORPUSCULAR HEMOGLOBIN CONCENTRATION / MEAN CORPUSCULAR VOLUME / MONOCYTE / NEUTROPHIL / NUCLEATED RED BLOOD CELLS / PLATELET COUNT: tissue Blood; for ALANINE AMINOTRANSFERASE / ALBUMIN / ALKALINE PHOSPHATASE / ASPARTATE AMINOTRANSFERASE / BLOOD UREA NITROGEN / CARBON DIOXIDE / CHLORIDE / CHOLESTEROL / CREATINE PHOSPHOKINASE / CREATININE / GLUCOSE / LACTATE DEHYDROGENASE / LIPASE / PHOSPHORUS / POTASSIUM / SODIUM / TOTAL BILIRUBIN / TOTAL PROTEIN / URIC ACID: tissue Plasma
[1] = 0 mg/kg, 72 h, dose level Control, time 3 day
[2] = 0 mg/kg, 120 h, dose level Control, time 5 day
[3] = […], 72 h, dose 6.5 mg/Kg, dose level Low, time 3 day
[4] = […], 120 h, dose 6.5 mg/Kg, dose level Low, time 5 day

SMILES: CN(C)CCOC(c1ccccc1)c1ccccc1.Cn1c(=O)c2[nH]c(Cl)nc2n(C)c1=O [DIMENHYDRINATE]
- ABSOLUTE BASOPHIL [1]: 0 CELLS/uL
- ABSOLUTE EOSINOPHIL [1]: 32.5 CELLS/uL
- ABSOLUTE MONOCYTE [1]: 474 CELLS/uL
- ABSOLUTE SEGMENTED NEUTROPHIL [1]: 1932.67 CELLS/uL
- BASOPHIL [1]: 0%
- EOSINOPHIL [1]: 0.17%
- ERYTHROCYTE COUNT [1]: 5.45 x10E6/uL
- HEMATOCRIT [1]: 34.32%
- HEMOGLOBIN [1]: 13.82 G/DL
- LEUKOCYTE COUNT [1]: 15.93 x10E3/uL
- LYMPHOCYTE [1]: 84.83%
- MEAN CORPUSCULAR HEMOGLOBIN [1]: 25.38 pg
- MEAN CORPUSCULAR HEMOGLOBIN CONCENTRATION [1]: 40.27 G/DL
- MEAN CORPUSCULAR VOLUME [1]: 63.05 fL
- MONOCYTE [1]: 3%
- NEUTROPHIL [1]: 12%
- NUCLEATED RED BLOOD CELLS [1]: 0.67 /100WBC
- PLATELET COUNT [1]: 1188.5 x10E3/uL
- ALANINE AMINOTRANSFERASE [1]: 54.83 u/L
- ALBUMIN [1]: 4.22 G/DL
- ALKALINE PHOSPHATASE [1]: 427.67 u/L
- ASPARTATE AMINOTRANSFERASE [1]: 86.5 u/L
- BLOOD UREA NITROGEN [1]: 15.33 mg/dL
- CARBON DIOXIDE [1]: 24.83 mmol/L
- CHLORIDE [1]: 102.33 MEQ/L
- CHOLESTEROL [1]: 71.67 mg/dL
- CREATINE PHOSPHOKINASE [1]: 442.5 u/L
- CREATININE [1]: 0.19 mg/dL
- GLUCOSE [1]: 160.67 mg/dL
- LACTATE DEHYDROGENASE [1]: 236.5 u/L
- LIPASE [1]: 9 u/L
- PHOSPHORUS [1]: 11.97 mg/dL
- POTASSIUM [1]: 6.2 MEQ/L
- SODIUM [1]: 142.85 MEQ/L
- TOTAL BILIRUBIN [1]: 0.2 mg/dL
- TOTAL PROTEIN [1]: 5.8 G/DL
- URIC ACID [1]: 1.3 mg/dL
- ABSOLUTE BASOPHIL [2]: 0 CELLS/uL
- ABSOLUTE EOSINOPHIL [2]: 114.5 CELLS/uL
- ABSOLUTE MONOCYTE [2]: 173 CELLS/uL
- ABSOLUTE SEGMENTED NEUTROPHIL [2]: 1048.5 CELLS/uL
- BASOPHIL [2]: 0%
- EOSINOPHIL [2]: 0.67%
- ERYTHROCYTE COUNT [2]: 5.66 x10E6/uL
- HEMATOCRIT [2]: 35.52%
- HEMOGLOBIN [2]: 14.27 G/DL
- LEUKOCYTE COUNT [2]: 15.95 x10E3/uL
- LYMPHOCYTE [2]: 91.33%
- MEAN CORPUSCULAR HEMOGLOBIN [2]: 25.23 pg
- MEAN CORPUSCULAR HEMOGLOBIN CONCENTRATION [2]: 40.2 G/DL
- MEAN CORPUSCULAR VOLUME [2]: 62.7 fL
- MONOCYTE [2]: 1.17%
- NEUTROPHIL [2]: 6.83%
- NUCLEATED RED BLOOD CELLS [2]: 0.33 /100WBC
- PLATELET COUNT [2]: 1229 x10E3/uL
- ALANINE AMINOTRANSFERASE [2]: 58.67 u/L
- ALBUMIN [2]: 4.32 G/DL
- ALKALINE PHOSPHATASE [2]: 382.5 u/L
- ASPARTATE AMINOTRANSFERASE [2]: 81.67 u/L
- BLOOD UREA NITROGEN [2]: 17.67 mg/dL
- CARBON DIOXIDE [2]: 27.17 mmol/L
- CHLORIDE [2]: 102.33 MEQ/L
- CHOLESTEROL [2]: 63.67 mg/dL
- CREATINE PHOSPHOKINASE [2]: 227.67 u/L
- CREATININE [2]: 0.23 mg/dL
- GLUCOSE [2]: 155.33 mg/dL
- LACTATE DEHYDROGENASE [2]: 146.5 u/L
- LIPASE [2]: 10.67 u/L
- PHOSPHORUS [2]: 11.93 mg/dL
- POTASSIUM [2]: 6.85 MEQ/L
- SODIUM [2]: 143.95 MEQ/L
- TOTAL BILIRUBIN [2]: 0.18 mg/dL
- TOTAL PROTEIN [2]: 6.02 G/DL
- URIC ACID [2]: 1.63 mg/dL
- ABSOLUTE BASOPHIL [3]: 0 CELLS/uL
- ABSOLUTE EOSINOPHIL [3]: 46.67 CELLS/uL
- ABSOLUTE MONOCYTE [3]: 474 CELLS/uL
- ABSOLUTE SEGMENTED NEUTROPHIL [3]: 1911.67 CELLS/uL
- BASOPHIL [3]: 0%
- EOSINOPHIL [3]: 0.33%
- ERYTHROCYTE COUNT [3]: 5.67 x10E6/uL
- HEMATOCRIT [3]: 35.5%
- HEMOGLOBIN [3]: 13.93 G/DL
- LEUKOCYTE COUNT [3]: 14.93 x10E3/uL
- LYMPHOCYTE [3]: 84%
- MEAN CORPUSCULAR HEMOGLOBIN [3]: 24.57 pg
- MEAN CORPUSCULAR HEMOGLOBIN CONCENTRATION [3]: 39.27 G/DL
- MEAN CORPUSCULAR VOLUME [3]: 62.6 fL
- MONOCYTE [3]: 3%
- NEUTROPHIL [3]: 12.67%
- NUCLEATED RED BLOOD CELLS [3]: 0 /100WBC
- PLATELET COUNT [3]: 1199.33 x10E3/uL
- ALANINE AMINOTRANSFERASE [3]: 47.67 u/L
- ALBUMIN [3]: 4.03 G/DL
- ALKALINE PHOSPHATASE [3]: 343 u/L
- ASPARTATE AMINOTRANSFERASE [3]: 87 u/L
- BLOOD UREA NITROGEN [3]: 15 mg/dL
- CARBON DIOXIDE [3]: 25.67 mmol/L
- CHLORIDE [3]: 102 MEQ/L
- CHOLESTEROL [3]: 75.33 mg/dL
- CREATINE PHOSPHOKINASE [3]: 266 u/L
- CREATININE [3]: 0.14 mg/dL
- GLUCOSE [3]: 167.33 mg/dL
- LACTATE DEHYDROGENASE [3]: 166 u/L
- LIPASE [3]: 9.33 u/L
- PHOSPHORUS [3]: 12.2 mg/dL
- POTASSIUM [3]: 6.53 MEQ/L
- SODIUM [3]: 144.67 MEQ/L
- TOTAL BILIRUBIN [3]: 0.2 mg/dL
- TOTAL PROTEIN [3]: 5.6 G/DL
- URIC ACID [3]: 1.57 mg/dL
- ABSOLUTE BASOPHIL [4]: 0 CELLS/uL
- ABSOLUTE EOSINOPHIL [4]: 108.67 CELLS/uL
- ABSOLUTE MONOCYTE [4]: 85.67 CELLS/uL
- ABSOLUTE SEGMENTED NEUTROPHIL [4]: 1586.67 CELLS/uL
- BASOPHIL [4]: 0%
- EOSINOPHIL [4]: 0.67%
- ERYTHROCYTE COUNT [4]: 5.47 x10E6/uL
- HEMATOCRIT [4]: 34.93%
- HEMOGLOBIN [4]: 14.13 G/DL
- LEUKOCYTE COUNT [4]: 19.43 x10E3/uL
- LYMPHOCYTE [4]: 91.67%
- MEAN CORPUSCULAR HEMOGLOBIN [4]: 25.8 pg
- MEAN CORPUSCULAR HEMOGLOBIN CONCENTRATION [4]: 40.47 G/DL
- MEAN CORPUSCULAR VOLUME [4]: 63.8 fL
- MONOCYTE [4]: 0.33%
- NEUTROPHIL [4]: 7.33%
- NUCLEATED RED BLOOD CELLS [4]: 0 /100WBC
- PLATELET COUNT [4]: 1543 x10E3/uL
- ALANINE AMINOTRANSFERASE [4]: 48.67 u/L
- ALBUMIN [4]: 4.17 G/DL
- ALKALINE PHOSPHATASE [4]: 266.33 u/L
- ASPARTATE AMINOTRANSFERASE [4]: 77.33 u/L
- BLOOD UREA NITROGEN [4]: 18.67 mg/dL
- CARBON DIOXIDE [4]: 25 mmol/L
- CHLORIDE [4]: 96 MEQ/L
- CHOLESTEROL [4]: 71.33 mg/dL
- CREATINE PHOSPHOKINASE [4]: 225.67 u/L
- CREATININE [4]: 0.2 mg/dL
- GLUCOSE [4]: 159 mg/dL
- LACTATE DEHYDROGENASE [4]: 96.67 u/L
- LIPASE [4]: 10 u/L
- PHOSPHORUS [4]: 13.07 mg/dL
- POTASSIUM [4]: 6.62 MEQ/L
- SODIUM [4]: 135.4 MEQ/L
- TOTAL BILIRUBIN [4]: 0.13 mg/dL
- TOTAL PROTEIN [4]: 5.8 G/DL
- URIC ACID [4]: 2.27 mg/dL
